US10131652B2, “Pyrimidinyloxy benzene derivatives as herbicides” (E. I. DU PONT DE NEMOURS AND COMPANY, priority 2014, dated 2018)

Tests used:
Assay type in all cases: in vivo
[1] = system: barnyardgrass (Echinochloa crus-galli); assay: Test C flooded paddy test plant response; settings: Flood, 250 g ai/ha; scale of 0 to 100 where 0 is no effect and 100 is complete control; 13 to 15 days
How it was run: (§1)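 Plants grown to the 2-leaf stage; pots flooded to 3 cm above soil, test compounds applied directly to paddy water, depth maintained throughout. Greenhouse for 13 to 15 days, then visual rating versus controls on a 0–100 scale (0 no effect, 100 complete control).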

[2] = system: ducksalad (Heteranthera limosa); assay: Test C flooded paddy test plant response; settings: Flood, 250 g ai/ha; scale of 0 to 100 where 0 is no effect and 100 is complete control; 13 to 15 days
How it was run: as §1

[3] = system: rice (Oryza sativa); assay: Test C flooded paddy test plant response; settings: Flood, 250 g ai/ha; scale of 0 to 100 where 0 is no effect and 100 is complete control; 13 to 15 days
How it was run: as §1

[4] = system: small-flower umbrella sedge (Cyperus difformis); assay: Test C flooded paddy test plant response; settings: Flood, 250 g ai/ha; scale of 0 to 100 where 0 is no effect and 100 is complete control; 13 to 15 days
How it was run: as §1

[5] = system: johnsongrass (Sorghum halepense); assay: Test D pre-/postemergence plant response
How it was run: (§2)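 0 = no effect, 100 = complete control: plants were scored this way by visual comparison with controls 13 to 15 days post-treatment. Application was preemergence to sown loam/sand pots or postemergence to 2–18 cm seedlings in peat-based mix.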

[6] = system: large (Lg) crabgrass (Digitaria sanguinalis); assay: Test D pre-/postemergence plant response
How it was run: as §2

[7] = system: oilseed rape (Brassica napus); assay: Test D pre-/postemergence plant response
How it was run: as §2

[8] = system: soybean (Glycine max); assay: Test D pre-/postemergence plant response
How it was run: as §2

[9] = system: velvetleaf (Abutilon theophrasti); assay: Test D pre-/postemergence plant response
How it was run: as §2

[10] = system: winter wheat (Triticum aestivum); assay: Test D pre-/postemergence plant response
How it was run: as §2

[11] = system: yellow nutsedge (Cyperus esculentus); assay: Test D pre-/postemergence plant response; settings: Preemergence; for Plant response rating, Nutsedge, Yellow: scale 0 to 100 (0 no effect, 100 complete control)
How it was run: as §2

[12] = system: chickweed (common chickweed, Stellaria media); assay: Test D postemergence plant response; settings: for Chickweed plant response rating: scale 0 to 100 (0 no effect, 100 complete control); for Plant response rating, Chickweed: scale 0 to 100, 0 no effect, 100 complete control
How it was run: (§3)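 The formulated test chemicals were applied over the foliage of young potted plants (2 to 18 cm tall), which were then held under greenhouse conditions. Between days 13 and 15 each species was rated by eye versus controls, from 0 for no effect up to 100 for complete control.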

[13] = system: kochia (Kochia scoparia); assay: Test D postemergence plant response; settings: for Kochia plant response rating: scale 0 to 100 (0 no effect, 100 complete control); for Plant response rating, Kochia: scale 0 to 100, 0 no effect, 100 complete control
How it was run: as §3

[14] = system: wild oat (Avena fatua); assay: Test D postemergence plant response; settings: for Oat, Wild plant response rating: scale 0 to 100 (0 no effect, 100 complete control); for Plant response rating, Oat, Wild: scale 0 to 100, 0 no effect, 100 complete control
How it was run: as §3

[15] = Postemergence, 16 g ai/ha, scale 0 to 100 (0 no effect, 100 complete control)
[16] = Postemergence, 31 g ai/ha, scale 0 to 100 (0 no effect, 100 complete control)
[17] = Postemergence, 62 g ai/ha, scale 0 to 100, 0 no effect, 100 complete control
[18] = Postemergence, 125 g ai/ha, scale 0 to 100, 0 no effect, 100 complete control
[19] = Preemergence, 16 g ai/ha, scale 0 to 100 (0 no effect, 100 complete control)
[20] = Preemergence, 31 g ai/ha, scale 0 to 100 (0 no effect, 100 complete control)
[21] = Preemergence, 62 g ai/ha, scale 0 to 100 (0 no effect, 100 complete control)

FC(F)(F)c1cc(-c2ccccc2Oc2ncc(Cl)cn2)ncn1 [Compound 54] was tested, and the “Barnyardgrass plant response rating” value [1] was 0, the “Ducksalad plant response rating” value [2] was 60 and the “Rice plant response rating” value [3] was 0. The “Sedge, Umbrella plant response rating” value [4] was 0, the “Johnsongrass plant response rating” value [5, 15] was 0 and the “Johnsongrass plant response rating” value [5, 16] was 0. The “Plant response rating, Johnsongrass” value [5, 17] was 5, the “Plant response rating, Johnsongrass” value [5, 18] was 5 and the “Plant response rating (scale 0 to 100), Johnsongrass” value ([5]; Preemergence, 125 g ai/ha) was 40. For the same molecule, the “Plant response rating, Johnsongrass” value [5, 19] was 0, the “Plant response rating, Johnsongrass” value [5, 20] was 0 and the “Plant response rating, Johnsongrass” value [5, 21] was 10. For the same molecule, the “Crabgrass, Large plant response rating” value [6, 15] was 5, the “Crabgrass, Large plant response rating” value [6, 16] was 5 and the “Plant response rating, Crabgrass, Large” value [6, 17] was 5. For the same molecule, the “Plant response rating, Crabgrass, Large” value [6, 18] was 5, the “Plant response rating (scale 0 to 100), Crabgrass, Large” value ([6]; Preemergence, 125 g ai/ha) was 100 and the “Plant response rating, Crabgrass, Large” value [6, 19] was 10. The “Plant response rating, Crabgrass, Large” value [6, 20] was 75, the “Plant response rating, Crabgrass, Large” value [6, 21] was 90 and the “Oilseed Rape plant response rating” value [7, 15] was 5. The “Oilseed Rape plant response rating” value [7, 16] was 20, the “Plant response rating, Oilseed Rape” value [7, 17] was 50 and the “Plant response rating, Oilseed Rape” value [7, 18] was 60. For the same molecule, the “Plant response rating (scale 0 to 100), Oilseed Rape” value ([7]; Preemergence, 125 g ai/ha) was 100, the “Plant response rating, Oilseed Rape” value [7, 19] was 60 and the “Plant response rating, Oilseed Rape” value [7, 20] was 85. For the same molecule, the “Plant response rating, Oilseed Rape” value [7, 21] was 100, the “Soybean plant response rating” value [8, 15] was 15 and the “Soybean plant response rating” value [8, 16] was 10. For the same molecule, the “Plant response rating, Soybean” value [8, 17] was 50, the “Plant response rating, Soybean” value [8, 18] was 80 and the “Plant response rating (scale 0 to 100), Soybean” value ([8]; Preemergence, 125 g ai/ha) was 20. For the same molecule, the “Plant response rating, Soybean” value [8, 19] was 0, the “Plant response rating, Soybean” value [8, 20] was 10 and the “Plant response rating, Soybean” value [8, 21] was 20. For the same molecule, the “Velvetleaf plant response rating” value [9, 15] was 0, the “Velvetleaf plant response rating” value [9, 16] was 5 and the “Plant response rating, Velvetleaf” value [9, 17] was 40. For the same molecule, the “Plant response rating, Velvetleaf” value [9, 18] was 40, the “Plant response rating (scale 0 to 100), Velvetleaf” value ([9]; Preemergence, 125 g ai/ha) was 100 and the “Plant response rating, Velvetleaf” value [9, 19] was 15. For the same molecule, the “Plant response rating, Velvetleaf” value [9, 20] was 70, the “Plant response rating, Velvetleaf” value [9, 21] was 85 and the “Wheat plant response rating” value [10, 15] was 0. The “Wheat plant response rating” value [10, 16] was 0, the “Plant response rating, Wheat” value [10, 17] was 0 and the “Plant response rating, Wheat” value [10, 18] was 5. For the same molecule, the “Plant response rating (scale 0 to 100), Wheat” value ([10]; Preemergence, 125 g ai/ha) was 0, the “Plant response rating, Wheat” value [10, 19] was 0 and the “Plant response rating, Wheat” value [10, 20] was 0. The “Plant response rating, Wheat” value [10, 21] was 0, the “Plant response rating (scale 0 to 100), Nutsedge, Yellow” value ([11]; 125 g ai/ha) was 15 and the “Plant response rating, Nutsedge, Yellow” value ([11]; 16 g ai/ha) was 0. For the same molecule, the “Plant response rating, Nutsedge, Yellow” value ([11]; 31 g ai/ha) was 0, the “Plant response rating, Nutsedge, Yellow” value ([11]; 62 g ai/ha) was 0 and the “Chickweed plant response rating” value ([12]; 16 g ai/ha) was 5. The “Chickweed plant response rating” value ([12]; 31 g ai/ha) was 5, the “Plant response rating, Chickweed” value ([12]; 62 g ai/ha) was 5 and the “Plant response rating, Chickweed” value ([12]; 125 g ai/ha) was 5. The “Kochia plant response rating” value ([13]; 16 g ai/ha) was 50, the “Kochia plant response rating” value ([13]; 31 g ai/ha) was 55 and the “Plant response rating, Kochia” value ([13]; 62 g ai/ha) was 80. The “Plant response rating, Kochia” value ([13]; 125 g ai/ha) was 80, the “Oat, Wild plant response rating” value ([14]; 16 g ai/ha) was 0 and the “Oat, Wild plant response rating” value ([14]; 31 g ai/ha) was 0. For the same molecule, the “Plant response rating, Oat, Wild” value ([14]; 62 g ai/ha) was 5 and the “Plant response rating, Oat, Wild” value ([14]; 125 g ai/ha) was 5.
